Data taken from patent US20140228440A1, “1-AMINO-ALKYLCYCLOHEXANE DERIVATIVES FOR THE TREATMENT OF INFLAMMATORY SKIN DISEASES” (MERZ PHARMA GmbH & CO. KGaA, priority 2008, published 2014).

Legend:
[1] = tested on: Propionibacterium acnes ATCC 11828; assay: MIC and MBC by the agar dilution method; assay type: cell-based
Method: (§1) To assess the anti-microbial potency of Neramexane against acne relevant bacterias the minimal inhibitory concentration (MIC) and minimal bactericidal concentration (MBC) against the following bacterias is established: The MICs of the samples are determined using the agar dilution method based on DIN 58940. Petri dishes of 5.5 cm diameter are poured with 2.5 ml of freshly prepared Mueller-Hinton agar (Merck company, Cat-No 1.05437) or Wilkins-Chalgren-Agar (Oxoid company, Cat-No CM643), maintained in liquid form at 50° C., to which the sample dilutions at various concentrations have been added at 50.0 vol.-%. To prepare the starting sample dilutions, a 12.5%, 3.12% suspension of the respective sample solution is prepared with Aqua purificata. From these stock-solutions, further dilutions are prepared with Aqua purificata. All test compounds are adjusted to pH 5.5. For test product no. 1, separate dilutions adjusted to pH 6.0 and pH 7.4 are also prepared. For inoculation, 1 μl of the respective germ suspension is placed on the centre of each agar plate. After drying, inoculated plates are incubated at 36.0±2.0° C. The basis for the length of incubation period is the respective growth control cultivated in parallel. The test microbe suspension is prepared by inoculating a few individual colonies of the respective bacteria into sterile saline solution until a turbidity corresponding to the McFarland standard 1.0 (approximately 10^8 cfu/ml) is reached. After that, the test microbe suspensions are further diluted 1:10 with saline solution and the microbial counts (see Table 21) are determined by the surface spread method using a spiral plater. The agar plates are incubated under the conditions given in Table 22 and subsequently evaluated. The MIC-values as given represent the lowest concentration of the active substance at which there is no macroscopically visible growth. Minimal, barely visible growth or few small individual colonies are evaluated as inhibition. [table] All negative tests of the determination of the minimal bactericial concentration are the basis of verification of remaining germs, the inoculated agar segments are cut and put in Mueller-Hinton-Bouillon (germ 1) or Wilkins-Chalgren-Bouillon (germs 2-4). After an adequate incubation period at 36.0±2.0° C. (as judged from a control without test compound), the tests are checked manually on microbial growth (=turbidity) and the minimal bactericidal concentration is determined. MBC indicates the concentration without marked turbidity. Grown germs are checked for identity to rule out unspecific contaminations. The following results are summarized and tabulated: • a) Results of the Minimal Inhibitory Concentration (MIC)* • b) Results of the Minimal Bactericidal Concentration (MBC) *The MIC is the concentration without macroscopical growth. Scarcely apparent, minimum growth or few single colonies are not considered. The controls must have a respectively good developed growth. There must be no growth on the agar plates for the sterile control. The growth of bacteria is indicated for the duplicate plates by a +(i.e., growth) or a −(i.e., no growth), +− indicates weak growth on both plates or growth on one plate and no growth on the other plate. All bacteria show appropriate growth on the respective control plate not containing any test compound. No influence of the used diluent (Aqua purifacata) was observed. No contamination is observed on the control-plates.

[2] = tested on: Propionibacterium avidum ATCC 25577; assay: MIC and MBC by the agar dilution method; assay type: cell-based; settings: pH 5.5
Method: as §1

[3] = final concentration 0.08 %, pH 5.5
[4] = final concentration 0.08 %, pH 6.0
[5] = final concentration 0.16 %, pH 5.5
[6] = final concentration 0.16 %, pH 6.0
[7] = final concentration 0.16 %, pH 7.4
[8] = final concentration 0.31 %, pH 5.5
[9] = final concentration 0.31 %, pH 6.0
[10] = final concentration 0.31 %, pH 7.4
[11] = final concentration 0.63 %, pH 5.5
[12] = final concentration 0.63 %, pH 6.0
[13] = final concentration 0.63 %, pH 7.4
[14] = final concentration 1.56 %, pH 5.5
[15] = final concentration 1.56 %, pH 6.0
[16] = final concentration 1.56 %, pH 7.4
[17] = final concentration 2.50 %, pH 5.5
[18] = final concentration 2.50 %, pH 6.0
[19] = final concentration 2.50 %, pH 7.4
[20] = final concentration 3.13 %, pH 5.5
[21] = final concentration 3.13 %, pH 6.0
[22] = final concentration 3.13 %, pH 7.4
[23] = final concentration 6.25 %, pH 5.5
[24] = final concentration 6.25 %, pH 6.0
[25] = final concentration 6.25 %, pH 7.4

growth of bacteria on duplicate plates (MIC determination) ([1]; final concentration 0.01 %, pH 5.5): + +
growth of bacteria on duplicate plates (MIC determination) ([1]; final concentration 0.01 %, pH 6.0): + +
growth of bacteria on duplicate plates (MIC determination) ([1]; final concentration 0.01 %, pH 7.4): + +
growth of bacteria on duplicate plates (MIC determination) ([1]; final concentration 0.04 %, pH 5.5): + +
growth of bacteria on duplicate plates (MIC determination) ([1]; final concentration 0.04 %, pH 6.0): + +
growth of bacteria on duplicate plates (MIC determination) ([1]; final concentration 0.04 %, pH 7.4): + +
growth of bacteria on duplicate plates (MIC determination) [1, 3]: − −
growth of bacteria on duplicate plates (MIC determination) [1, 4]: − −
growth of bacteria on duplicate plates (MIC determination) ([1]; final concentration 0.08 %, pH 7.4): + +
growth of bacteria on duplicate plates (MIC determination) [1, 5]: − −
growth of bacteria on duplicate plates (MIC determination) [1, 6]: − −
growth of bacteria on duplicate plates (MIC determination) [1, 7]: − −
growth of bacteria on duplicate plates (MIC determination) [1, 8]: − −
growth of bacteria on duplicate plates (MIC determination) [1, 9]: − −
growth of bacteria on duplicate plates (MIC determination) [1, 10]: − −
growth of bacteria on duplicate plates (MIC determination) [1, 11]: − −
growth of bacteria on duplicate plates (MIC determination) [1, 12]: − −
growth of bacteria on duplicate plates (MIC determination) [1, 13]: − −
growth of bacteria on duplicate plates (MIC determination) [1, 14]: − −
growth of bacteria on duplicate plates (MIC determination) [1, 15]: − −
growth of bacteria on duplicate plates (MIC determination) [1, 16]: − −
growth of bacteria on duplicate plates (MIC determination) [1, 17]: − −
growth of bacteria on duplicate plates (MIC determination) [1, 18]: − −
growth of bacteria on duplicate plates (MIC determination) [1, 19]: − −
growth of bacteria on duplicate plates (MIC determination) [1, 20]: − −
growth of bacteria on duplicate plates (MIC determination) [1, 21]: − −
growth of bacteria on duplicate plates (MIC determination) [1, 22]: − −
growth of bacteria on duplicate plates (MIC determination) [1, 23]: − −
growth of bacteria on duplicate plates (MIC determination) [1, 24]: − −
growth of bacteria on duplicate plates (MIC determination) [1, 25]: − −
MIC ([1]; pH 5.5): 0.08%
MIC ([1]; pH 6.0): 0.08%
MIC ([1]; pH 7.4): 0.16%
growth of bacteria on duplicate plates (MIC determination) ([2]; final concentration 0.01 %): + +
growth of bacteria on duplicate plates (MIC determination) ([2]; final concentration 0.04 %): + +
growth of bacteria on duplicate plates (MIC determination) ([2]; final concentration 0.08 %): − −
growth of bacteria on duplicate plates (MIC determination) ([2]; final concentration 0.16 %): − −
growth of bacteria on duplicate plates (MIC determination) ([2]; final concentration 0.31 %): − −
growth of bacteria on duplicate plates (MIC determination) ([2]; final concentration 0.63 %): − −
growth of bacteria on duplicate plates (MIC determination) ([2]; final concentration 1.56 %): − −
growth of bacteria on duplicate plates (MIC determination) ([2]; final concentration 2.50 %): − −
growth of bacteria on duplicate plates (MIC determination) ([2]; final concentration 3.13 %): − −
growth of bacteria on duplicate plates (MIC determination) ([2]; final concentration 6.25 %): − −
MIC [2]: 0.08%
Structure (SMILES): CC1(C)CC(C)(C)CC(C)(N)C1.CS(=O)(=O)O [Neramexane mesylate]
growth of bacteria (MBC determination) [1, 3]: + +
growth of bacteria (MBC determination) [1, 4]: + +
growth of bacteria (MBC determination) [1, 5]: + +
growth of bacteria (MBC determination) [1, 6]: + +
growth of bacteria (MBC determination) [1, 7]: + +
growth of bacteria (MBC determination) [1, 8]: + +
growth of bacteria (MBC determination) [1, 9]: + +
growth of bacteria (MBC determination) [1, 10]: + +
growth of bacteria (MBC determination) [1, 11]: + +
growth of bacteria (MBC determination) [1, 12]: − −
growth of bacteria (MBC determination) [1, 13]: + +
growth of bacteria (MBC determination) [1, 14]: − −
growth of bacteria (MBC determination) [1, 15]: − −
growth of bacteria (MBC determination) [1, 16]: − −
growth of bacteria (MBC determination) [1, 17]: − −
growth of bacteria (MBC determination) [1, 18]: − −
growth of bacteria (MBC determination) [1, 19]: − −
growth of bacteria (MBC determination) [1, 20]: − −
growth of bacteria (MBC determination) [1, 21]: − −
growth of bacteria (MBC determination) [1, 22]: − −
growth of bacteria (MBC determination) [1, 23]: − −
growth of bacteria (MBC determination) [1, 24]: − −
growth of bacteria (MBC determination) [1, 25]: − −
MBC ([1]; pH 5.5): 1.56%
MBC ([1]; pH 6.0): 0.63%
MBC ([1]; pH 7.4): 1.56%
growth of bacteria (MBC determination) ([2]; final concentration 0.08 %): + +
growth of bacteria (MBC determination) ([2]; final concentration 0.16 %): + +
growth of bacteria (MBC determination) ([2]; final concentration 0.31 %): + +
growth of bacteria (MBC determination) ([2]; final concentration 0.63 %): − −
growth of bacteria (MBC determination) ([2]; final concentration 1.56 %): − −
growth of bacteria (MBC determination) ([2]; final concentration 2.50 %): − −
growth of bacteria (MBC determination) ([2]; final concentration 3.13 %): − −
growth of bacteria (MBC determination) ([2]; final concentration 6.25 %): − −
MBC [2]: 0.63%
